In patent US7732200B2, “Materials and methods for nerve grafting, selection of nerve grafts, and in vitro nerve tissue culture” (University of Florida Research Foundation, Inc., priority 2001, dated 2010):

Tests used:
[1] = system: embryonic chick DRG neurons; assay: Cryoculture bioassay of chondroitinase-treated acellular rat nerve segments; assay type: cell-based
Excerpt: Preparation of acellular nerve grafts treated with chondroitinase: Adult (180-200 g) female SPRAGUE DAWLEY rats (HARLAN, Indianapolis, Ind.) were used as nerve donors and recipient hosts. Donor rats were anesthetized with halothane and decapitated. Sciatic nerves were exposed through a gluteal muscle-splitting incision and isolated free of underlying fascia. A 15-mm nerve segment was excised rostral to the bifurcation into common peroneal and tibial nerves. The segments were rinsed with cold sterile Ringer's solution, stabilized by pinning the ends to a thin plastic support, and transferred to a cryogenic vial. The vials were submerged in liquid nitrogen for 2 minutes and then transferred to a 37° C. water bath for 2 minutes. This freeze/thaw cycle was repeated, yielding acellular nerve grafts that were then stored in liquid nitrogen. On the day before grafting, the nerve grafts were warmed to room temperature and incubated in 100 μl phosphate buffered saline pH 7.4 (PBS) containing 2 units/ml chondroitinase ABC (SIGMA, St. Louis, Mo.) or in PBS (vehicle) only for 16 hours at 37° C. The grafts were rinsed twice with Ringer's and kept on ice prior to use. The chondroitinase ABC preparation was highly purified and stated by the manufacturer to be essentially free of protease activity.
Cryoculture bioassay. Cryoculture is a neurite outgrowth assay in which neurons are cultured directly on fresh/frozen nerve sections and was performed as described previously (Ferguson T A et al. [2000] Mol Cell Neurosci, 16:157-167). Briefly, chondroitinase- and vehicle-treated nerve segments were sectioned at 20 μm, mounted on sterile, aminopropyltriethoxysilane (APTS)-coated coverslips and stored at −20° C. until used. Where indicated, sections were treated with chondroitinase ABC (0.1 unit/ml) or vehicle (50 mM Tris-HCl, pH 8.0), containing 50 mM NaCl) for 2 h at 37° C. Purified dorsal root ganglionic (DRG) neurons from day 8 chick embryos were seeded directly on the nerve sections in a defined N2 medium (Bottenstein J E et al. [1980] Exp Cell Res 125:183-190) containing 10 ng/ml nerve growth factor. Cryoculture assays were terminated after 24 h of incubation by fixation with 100% methanol. Neuritic growth by DRG neurons was accessed by GAP-43 immunofluorescent labeling. […] Neurite lengths were measured directly using IMAGE-PRO PLUS software (MEDIA CYBERNETICS, Silver Springs, Md.). At least 250 neurons with neurites greater than one cell body (˜15 μm) were scored for each condition in each experiment.
Inactivation of inhibitory CSPG in chondroitinase-treated acellular nerve was determined by cryoculture bioassay. Embryonic chick DRG neurons were seeded onto sections of prepared nerve segments and the neurite-promoting activity was assessed by scoring neurite growth. […]

CSPG = CSPG neoepitope immunostaining of injured sciatic nerve after a single in vivo injection; design: species or system rat; conditions: 1 U in 2 μl injected 2 mm distal to injury; 4 days (transection) or 2 days (crush)
Description: Surgical procedures for nerve transection and nerve crush experiments. All surgical procedures were performed according to Institutional Animal Care and Use Committee (IACUC) approved protocols. Young adult SPRAGUE DAWLEY rats (HARLAN Indianapolis, Ind.) were deeply anesthetized with xylazine (15 mg/kg, i.m.) followed by ketamine-HCl (110 mg/kg, i.p.). Six animals received bilateral nerve crush injuries. Sciatic nerves were exposed and then crushed with firm pressure for thirty seconds with a DUMONT #5 forceps at a site 4 mm distal to the tendon of the internal obdurator. The crush site was marked with an epineurial suture. In a separate set of experiments, eight rats received bilateral sciatic nerve transection injuries using serrated scissors. The proximal and distal stumps were […] by epineurial neurorrhaphy using 9-0 ETHILON sutures. Fibrin glue (fibrinogen and thrombin) was then applied to stabilize the union. In both injury models, the right sciatic nerves were injected 2-mm distal to the injury with chondroitinase ABC (1 U in 2 μl) (high-purity, protease-free; SIGMA CHEMICAL CO., St. Louis, Mo.). Left sciatic nerves (with the same injury as the right side) were injected with vehicle alone (0.1% bovine serum albumin in PBS). […]
Immunocytochemistry. Axonal regeneration was assessed by GAP-43 immunofluorescence and digital image analysis. […]

For chondroitinase ABC, which average neurite length ([1]; acellular nerve pretreated en bloc, DRG neurons 24 h) is on record?
The average neurite length was 96 μm.

And the “increase in neurite growth compared to the control condition” value ([1]; en bloc treatment vs en bloc vehicle)?
Its value is 95%.

And the “increase in neurite-promoting activity by post-treatment of sections” value ([1]; nerve treated en bloc with vehicle only, sections post-treated 0.1 unit/ml 2 h)?
Its value is 86%.

What about the “effect of post-treatment on sections from en bloc treated nerve” value ([1]; sections of en bloc chondroitinase-treated nerve grafts) of the same substance?
The value was “only a slight additive effect”.

And the “CSPG degradation in extracellular matrix around the injection site” value (CSPG)?
The value was “substantially, if not completely, degraded CSPG”.
